# US8445509B2, “Fused heterocyclic derivatives and use thereof” (Takeda Pharmaceutical Company Limited, priority 2008, dated 2013)
# Assays:
# [1] = target: T1, VEGFR2 intracellular domain protein (Homo sapiens, UniProt P35968); assay: Vascular endothelial growth factor receptor 2 (VEGFR2) kinase inhibitory activity (AlphaScreen); assay type: biochemical
# T1 construct: made in house; host or cells: SF-21 insect cells, recombinant baculovirus BAC-VEGFR2
# Description: Human vascular endothelial growth factor receptor 2 (hereinafter to be referred to as VEGFR2) gene was cloned by PCR using cDNA Libraries Human Placenta (Clontech) as a template. […] The primer base sequence is shown below.
# SF-21 cells were sown at 1×10^6 cells/mL to Sf-900II SFM medium (1 L, Invitrogen) containing 10% fetal bovine serum (trace), 50 mg/L Gentamicin (Invitrogen) and 0.1% Pluronic F-68 (Invitrogen), and shaking culture was performed using a 2 L volume Erlenmeyer flask at 27° C., 100 rpm. After culturing for 24 hrs, recombinant baculovirus BAC-VEGFR2 (13.4 mL) was added to the mixture, and the mixture was further cultured for 3 days. The culture medium was centrifuged at 2,000 rpm for 5 min to give virus-infected cells. The infected cells were washed with a phosphate buffered saline (Invitrogen), centrifuged under the same conditions, and the cells were preserved at −80° C. The cryopreserved cells were thawed in ice, suspended in buffer A (50 mM Tris buffer (30 mL, pH 7.4) containing 20% glycerol, 0.15 M NaCl) supplemented with Complete Protease Inhibitor (Boehringer), and ruptured 3 times with a Polytron homogenizer (Kinematica) at 20,000 rpm for 30 sec. The ruptured medium was clarified by centrifugation at 40,000 rpm for 30 min and filtered with a 0.45 μm filter. The filtrate was passed through a column packed with Anti-FLAG M2 Affinity Gel (4 mL, Sigma) at a flow rate of about 0.5 mL/min. The column was washed with buffer A, and eluted with buffer A containing 100 μg/mL of FLAG peptide. The eluate was concentrated with Vivaspin 20 (Vivascience) having a molecular weight cut off of 30K. The buffer of this concentrate was exchanged using NAP™ 25 column (Amersham Bioscience) equilibrated with buffer A. The fractions containing intracellular domain protein of VEGFR2 were collected, glycerol was added to the final concentration of 50% and cryopreserved at −80° C.
# A test compound dissolved in dimethyl sulfoxide (DMSO) was diluted with a buffer (50 mM Tris-HCl (pH 7.5), 5 mM MgCl2, 5 mM MnCl2, 2 mM dithiothreitol, 0.01% Tween-20). To this compound solution (5 μL) was added a buffer (10 μL) containing 50 ng/mL of VEGFR2 intracellular domain protein and 250 ng/mL of biotin labeled polypeptide biotinyl-poly-Glu:Tyr (4:1) (CIS bio International). […] The reaction solution was allowed to stand at 25° C. for 16 hrs, and the wells were counted using a plate reader (Fusion™ (PerkinElmer)). The kinase inhibitory rate (%) of the test compound was calculated by the following formula: Inhibitory rate (%)=(1−(count of test compound−blank)÷(control−blank))×100
# (§1) The count of the solution reacted without addition of the compound was used as a “control”, and the count of the solution without the compound and ATP was used as a “blank”.
# [2] = test system: Human umbilical vein-derived vascular endothelial cells (HUVEC); assay: Vascular endothelial cell proliferation inhibitory test (VEGF-stimulated HUVEC); assay type: cell-based; conditions: 120 h, 5 days of culture with VEGF
# Description: Human umbilical vein-derived vascular endothelial cells (HUVEC purchased from KURABO […] LTD.) were cultured in an incubator at 37° C., 5% carbon dioxide in a vascular endothelial cell medium (Invitrogen) containing 3% bovine fetal serum and 2.5 ng/mL basic fibroblast growth factor. To be specific, HUVEC was suspended in a vascular endothelial cell medium containing the aforementioned 3% bovine fetal serum and plated on a 96 well flat bottom plate by 50 μL (3000 cells) each well. After culture overnight, various concentrations of the test substance and 120 ng/mL of vascular endothelial growth factor (VEGF) were dissolved in a vascular endothelial cell medium containing 3% bovine fetal serum and added to each well by 50 μL. After 5 days of culture, a Cell counting kit-8 reagent (DOJINDO LABORATORIES) was added to each well by 10 μL, and the mixture was reacted in an incubator at 37° C., 5% carbon dioxide for 2-3 hr. The absorbance at 450 nm was measured by a microtiter plate reader and the cell proliferation inhibitory activity was determined. Using the absorbance with addition of a test substance at each concentration and based on the nonlinear least-squares analysis using a logistic curve of SAS system NLIN procedure, the concentration of the test substance (IC50 value) necessary for showing 50% of the value obtained without addition of the test substance was calculated.
# [3] = target: T2, FLT3 intracellular domain protein (Homo sapiens, UniProt P36888); assay: Fms Like Tyrosine Kinase 3 (FLT3) kinase inhibitory activity (AlphaScreen); assay type: biochemical; conditions: for inhibition at 1 µM: 1 μM test compound, read-out: inhibitory rate (%) at 1 μM
# T2 construct: 7.5 ng/ml of FLT3 intracellular domain protein (Millipore); purchased Millipore
# T2 sequence (P36888 564-993 limits assumed): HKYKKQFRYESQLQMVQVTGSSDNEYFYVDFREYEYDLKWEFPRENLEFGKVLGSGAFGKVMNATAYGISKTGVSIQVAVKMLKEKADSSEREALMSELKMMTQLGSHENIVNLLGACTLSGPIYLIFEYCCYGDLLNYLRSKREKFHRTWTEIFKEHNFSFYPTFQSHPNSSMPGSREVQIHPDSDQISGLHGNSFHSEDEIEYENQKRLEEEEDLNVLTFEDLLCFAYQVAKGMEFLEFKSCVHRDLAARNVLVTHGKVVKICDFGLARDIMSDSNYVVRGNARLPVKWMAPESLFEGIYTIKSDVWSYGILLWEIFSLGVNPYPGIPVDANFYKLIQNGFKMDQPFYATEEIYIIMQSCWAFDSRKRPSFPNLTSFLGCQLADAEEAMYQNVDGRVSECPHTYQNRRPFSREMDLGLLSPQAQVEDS
# Description: A test compound dissolved in dimethyl sulfoxide (DMSO) was diluted with a buffer (50 mM Tris-HCl (pH 7.5), 5 mM MgCl2, 5 mM MnCl2, 2 mM dithiothreitol, 0.01% Tween-20). To this compound solution (5 μL) was added a buffer (10 μL) containing 7.5 ng/ml of FLT3 intracellular domain protein (Millipore) and 250 ng/mL of biotin labeled polypeptide biotinyl-poly-Glu:Tyr (4:1) (CIS bio International). At 5 min after mixing kinase enzyme and the compound and biotin labeled polypeptide, to the obtained mixture was added a buffer (10 μL) containing ATP (5 μM), the mixture was allowed to react at 25° C. for 10 min and the reaction was quenched with 25 μL of a stop solution (100 mM EDTA disodium salt, 62.5 mM HEPES buffer (pH 7.4), 250 mM NaCl, 0.1% bovine serum albumin, 10 μg/mL AlphaScreen assay streptavidin donor beads (Streptavidin Donor Beads: PerkinElmer), 10 μg/mL AlphaScreen assay anti-phosphotyrosine recognition antibody Y-100 binding acceptor beads (Anti-phosphotyrosine (P-Tyr-100) Acceptor beads: PerkinElmer)). The reaction solution was allowed to stand at 25° C. for 16 hrs, and the wells were counted using a plate reader (Envision™ (PerkinElmer)). The kinase inhibitory rate (%) of the test compound was calculated by the following formula: Inhibitory rate (%)=(1−(count of test compound−blank)÷(control−blank))×100
# as §1
# T1 sequence (P35968 786-1356 limits assumed): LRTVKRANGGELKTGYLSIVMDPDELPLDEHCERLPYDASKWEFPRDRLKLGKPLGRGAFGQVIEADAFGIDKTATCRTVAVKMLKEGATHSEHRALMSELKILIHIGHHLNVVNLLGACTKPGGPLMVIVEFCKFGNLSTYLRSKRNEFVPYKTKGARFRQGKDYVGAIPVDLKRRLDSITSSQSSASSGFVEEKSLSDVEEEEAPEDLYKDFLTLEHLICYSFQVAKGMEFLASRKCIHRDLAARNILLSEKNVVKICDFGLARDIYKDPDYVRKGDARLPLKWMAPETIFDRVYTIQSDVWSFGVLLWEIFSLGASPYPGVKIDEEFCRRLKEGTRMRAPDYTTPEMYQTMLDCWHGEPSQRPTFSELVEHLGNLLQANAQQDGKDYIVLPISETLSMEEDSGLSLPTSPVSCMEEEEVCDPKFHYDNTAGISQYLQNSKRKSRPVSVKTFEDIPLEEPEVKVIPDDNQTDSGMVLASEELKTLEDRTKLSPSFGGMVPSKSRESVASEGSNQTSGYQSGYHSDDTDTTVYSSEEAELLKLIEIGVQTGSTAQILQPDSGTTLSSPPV
IC50 [1] [nM],IC50 [3] [nM],inhibition at 1 µM [3] [%],SMILES,IC50 [2] [nM]
≤ 1000,≤ 1000,,"CC1=C(c2ccc(F)cc2)C(=O)N(C(=O)Nc2ccc(Oc3ccc4nc(NC(=O)C5CC5)cn4c3)c(F)c2)CC1 [Example 81, N-[4-({2-[(cyclopropylcarbonyl)amino]imidazo[1,2-a]pyridin-6-yl}oxy)-3-fluorophenyl]-5-(4-fluorophenyl)-4-methyl-6-oxo-3,6-dihydropyridine-1(2H)-carboxamide]",≤ 2000
≤ 1000,≤ 1000,,"Cc1ccc(C(=O)Nc2ccc(Oc3ccn4nc(NC(=O)C5CC5)nc4c3)c(F)c2)c(=O)n1-c1ccc(F)cc1 [Example 76, N-[4-({2-[(cyclopropylcarbonyl)amino][1,2,4]triazolo[1,5-a]pyridine-7-yl}oxy)-3-fluorophenyl]-1-(4-fluorophenyl)-6-methyl-2-oxo-1,2-dihydropyridine-3-carboxamide]",≤ 2000
≤ 1000,≤ 1000,,"Cc1ccc(C(=O)Nc2ccc(Oc3ccc4nc(NC(=O)C5CC5)cn4c3)cn2)c(=O)n1-c1ccc(F)cc1 [Example 60, N-[5-({2-[(cyclopropylcarbonyl)amino]imidazo[1,2-a]pyridin-6-yl}oxy)pyridin-2-yl]-1-(4-fluorophenyl)-6-methyl-2-oxo-1,2-dihydropyridine-3-carboxamide]",≤ 2000
≤ 1000,≤ 1000,,"Cc1c(C(=O)Nc2ccc(Oc3ccc4nc(NC(=O)C5CC5)cn4c3)c(F)c2)c(=O)n(-c2ccccc2)n1C [Example 46, N-[4-({2-[(cyclopropylcarbonyl)amino]imidazo[1,2-a]pyridin-6-yl}oxy)-3-fluorophenyl]-1,5-dimethyl-3-oxo-2-phenyl-2,3-dihydro-1H-pyrazole-4-carboxamide]",≤ 2000
≤ 1000,≤ 1000,,"Cc1cc(C(=O)Nc2ccc(Oc3ccc4nc(NC(=O)C5CC5)cn4c3)c(F)c2)c(=O)n(-c2ccc(F)cc2)c1 [Example 66, N-[4-({2-[(cyclopropylcarbonyl)amino]imidazo[1,2-a]pyridin-6-yl}oxy)-3-fluorophenyl]-1-(4-fluorophenyl)-5-methyl-2-oxo-1,2-dihydropyridine-3-carboxamide]",≤ 2000
≤ 1000,≤ 1000,≥ 50,"O=C(Nc1cn2cc(Oc3ccc(NC(=O)N4CCN(c5ccc(F)cc5)C4=O)cc3F)ccc2n1)C1CC1 [Example 53, N-[4-({2-[(cyclopropylcarbonyl)amino]imidazo[1,2-a]pyridin-6-yl}oxy)-3-sfluorophenyl]-3-(4-fluorophenyl)-2-oxoimidazolidine-1-carboxamide]",≤ 2000
≤ 1000,≤ 1000,≥ 50,"O=C(Nc1ccc(Oc2ccc3nc(NC(=O)C4CC4)cn3c2)c(F)c1)c1cccn(-c2ccc(F)cc2)c1=O [Example 10, N-[4-({2-[(cyclopropylcarbonyl)amino]imidazo[1,2-a]pyridin-6-yl}oxy)-3-fluorophenyl]-1-(4-fluorophenyl)-2-oxo-1,2-dihydropyridine-3-carboxamide]",≤ 2000
≤ 1000,≤ 1000,,"Cc1cc(C)n(-c2ccc(F)cc2)c(=O)c1C(=O)Nc1ccc(Oc2ccc3nc(NC(=O)C4CC4)cn3c2)c(F)c1 [Example 82, N-[4-({2-[(cyclopropylcarbonyl)amino]imidazo[1,2-a]pyridin-6-yl}oxy)-3-fluorophenyl]-1-(4-fluorophenyl)-4,6-dimethyl-2-oxo-1,2-dihydropyridine-3-carboxamide]",≤ 2000
≤ 1000,≤ 1000,,"Cc1ccc(C(=O)Nc2ccc(Oc3ccc4nc(NC(=O)C5CC5)cn4c3)c(Cl)c2)c(=O)n1-c1ccc(F)cc1 [Example 57, N-[3-chloro-4-({2-[(cyclopropylcarbonyl)amino]imidazo[1,2-a]pyridin-6-yl}oxy)phenyl]-1-(4-fluorophenyl)-6-methyl-2-oxo-1,2-dihydropyridine-3-carboxamide]",≤ 2000
≤ 1000,≤ 1000,,"CC1CCN(C(=O)Nc2ccc(Oc3ccc4nc(NC(=O)C5CC5)cn4c3)c(F)c2)C(=O)N1c1ccc(F)cc1 (stereo not shown) [Example 80, N-[4-({2-[(cyclopropylcarbonyl)amino]imidazo[1,2-a]pyridin-6-yl}oxy)-3-fluorophenyl]-3-(4-fluorophenyl)-4-methyl-2-oxotetrahydropyrimidine-1(2H)-carboxamide]",≤ 2000
≤ 1000,≤ 1000,,"Cc1ccc(C(=O)Nc2ccc(Oc3ccc4nc(NC(=O)C5CC5)cn4c3)c(F)c2)[n+]([O-])c1-c1ccc(F)cc1 [Example 29, N-[4-({2-[(cyclopropylcarbonyl)amino]imidazo[1,2-a]pyridin-6-yl}oxy)-3-fluorophenyl]-6-(4-fluorophenyl)-5-methylpyridine-2-carboxamide 1-oxide]",≤ 2000
≤ 1000,,,"Cc1ccc(C(=O)Nc2ccc(Oc3ccc4nc(NC(=O)C5CC5)cn4c3)c(F)c2)c(=O)n1-c1ccc(F)cc1.Cl [Example 32, N-[4-({2-[(cyclopropylcarbonyl)amino]imidazo[1,2-a]pyridin-6-yl}oxy)-3-fluorophenyl]-1-(4-fluorophenyl)-6-methyl-2-oxo-1,2-dihydropyridine-3-carboxamide hydrochloride]",≤ 2000
